According to ChEMBL document CHEMBL5543109, “Novel β-Hairpin Antimicrobial Peptide Containing the β-Turn Sequence of -NG- and the Tryptophan Zippers Facilitate Self-Assembly into Nanofibers, Exhibiting Excellent Antimicrobial Performance” (J Med Chem, 2024):
In brackets after ≈: the same amount, converted by molar mass. Activity calls are given as the source filed them. No cut-off for these calls is given here.

Key:
Staphylococcus aureus [1] = experiment: Antibacterial activity against Staphylococcus aureus ATCC 25923 incubated for 18 hrs by broth microdilution method; type: functional
Bacillus subtilis = experiment: Antibacterial activity against Bacillus subtilis ATCC 23857 incubated for 18 hrs by broth microdilution method; type: functional
Escherichia coli [2] = experiment: Antibacterial activity against Escherichia coli ATCC 25922 incubated for 18 hrs by broth microdilution method; type: functional
[3] = Self-assembly property of compound in PBS assessed as beta-sheet nanofibers formation incubated for 1 hr by Thioflavin T based fluorescence spectrophotometer analysis; type: physicochemical; conditions: buffer, dose 0.5-1.5 µM
[4] = Stability in mouse serum assessed as half-life measured upto 48 hrs by RP-HPLC analysis; type: ADME, cell-free
Pseudomonas aeruginosa [5] = experiment: Antibacterial activity against Pseudomonas aeruginosa incubated for 18 hrs in presence of NaCl by broth microdilution method; type: functional, organism-based
Pseudomonas aeruginosa [6] = experiment: Antibacterial activity against Pseudomonas aeruginosa incubated for 18 hrs in presence of KCl by broth microdilution method; type: functional, organism-based
Staphylococcus aureus [7] = experiment: Antibacterial activity against Staphylococcus aureus incubated for 18 hrs in presence of KCl by broth microdilution method; type: functional, organism-based
Staphylococcus aureus [8] = experiment: Antibacterial activity against Staphylococcus aureus incubated for 18 hrs in presence of CaCl2 by broth microdilution method; type: functional, organism-based
Cell membrane [9] = experiment: Induction of outer membrane permeabilization in Escherichia coli at 1/2 MIC measured immediately by NPN-dye based assay; type: cell membranes
Cell membrane [10] = experiment: Induction of cytoplasmic membrane depolarization in Staphylococcus aureus at 0.5 times MIC by DiSC3-5 dye based fluorescence method; type: cell membranes
Pseudomonas aeruginosa [11] = experiment: Induction of morphological change in Pseudomonas aeruginosa assessed as pore formation at 2 times MIC incubated for 30 mins by SEM analysis; type: functional, organism-based
Staphylococcus aureus [12] = experiment: Additive antibacterial activity against methicillin resistant Staphylococcus aureus 113 assessed as fractional inhibitory concentration index incubated for 18 hrs in presence of ciprofloxacin by checkerboard assay; type: functional
Escherichia coli [13] = experiment: Synergistic antibacterial activity against Escherichia coli assessed as fractional inhibitory concentration index incubated for 18 hrs in presence of rifampin by checkerboard assay; type: functional
Staphylococcus aureus [14] = experiment: Synergistic antibacterial activity against Staphylococcus aureus 794 assessed as fractional inhibitory concentration index incubated for 18 hrs in presence of rifampin by checkerboard assay; type: functional
Staphylococcus aureus [15] = experiment: Synergistic antibacterial activity against rifampicin resistant Staphylococcus aureus assessed as fractional inhibitory concentration index incubated for 18 hrs in presence of rifampin by checkerboard assay; type: functional
Staphylococcus aureus [16] = experiment: Synergistic antibacterial activity against methicillin resistant Staphylococcus aureus assessed as fractional inhibitory concentration index incubated for 18 hrs in presence of streptomycin by checkerboard assay; type: functional
Staphylococcus aureus [17] = experiment: Synergistic antibacterial activity against Staphylococcus aureus 794 assessed as fractional inhibitory concentration index incubated for 18 hrs in presence of bacitracin by checkerboard assay; type: functional
Klebsiella pneumoniae = experiment: […] antibacterial activity against Klebsiella pneumoniae assessed as fractional inhibitory concentration index incubated for 18 hrs in presence of polymyxin B by checkerboard assay; type: functional
Pseudomonas aeruginosa [18] = experiment: Synergistic antibacterial activity against Pseudomonas aeruginosa assessed as fractional inhibitory concentration index incubated for 18 hrs in presence of polymyxin B by checkerboard assay; type: functional
Staphylococcus aureus [19] = experiment: Antibacterial activity against Staphylococcus aureus infected in BALB/c mouse systemic infection model assessed as reduction in lung bacterial load at 5 to 10 mg/kg, ip measured after 8 hrs; type: functional, organism-based; conditions: dose 5-10 mg/kg
Staphylococcus aureus [20] = experiment: Antibacterial activity against Staphylococcus aureus 794 infected in BALB/c mouse skin wound infection model assessed as reduction in TNFalpha level at 1 mg/ml, ip pre-infected with bacteria for 24 hrs followed by compound addition and measured after 13 days post infection in presence of vancomycin; type: functional, organism-based; conditions: time 12.0 day
Staphylococcus aureus [21] = experiment: Antibacterial activity against Staphylococcus aureus 794 infected in BALB/c mouse skin wound infection model assessed as wound healing by measuring detached scab at 1 mg/ml, ip pre-infected with bacteria for 24 hrs followed by compound addition and measured on day 7; type: functional, organism-based; conditions: time 7.0 day
Staphylococcus aureus [22] = experiment: Antibacterial activity against Staphylococcus aureus 794 infected in BALB/c mouse skin wound infection model assessed as wound healing at 1 mg/ml, ip pre-infected with bacteria for 24 hrs followed by compound addition and measured on day 11; type: functional; conditions: time 11 day
[23] = Toxicity in BALB/c mouse infected with Staphylococcus aureus 794 assessed as increase in hair follicles at 1 mg/ml, ip pre-infected with bacteria for 24 hrs followed by compound addition and measured after 13 days by H and E staining based histopathological analysis; type: organism-based; conditions: in vivo, 312 h, time 13 day
Staphylococcus aureus [24] = experiment: Antibacterial activity against methicillin resistant Staphylococcus aureus 113 incubated for 18 hrs by broth microdilution method; type: functional
Staphylococcus aureus [25] = experiment: Antibacterial activity against Staphylococcus aureus S125 incubated for 18 hrs by broth microdilution method; type: functional
Staphylococcus aureus [26] = experiment: Antibacterial activity against rifampicin resistant Staphylococcus aureus incubated for 18 hrs by broth microdilution method; type: functional
Escherichia coli [27] = experiment: Antibacterial activity against Escherichia coli incubated for 18 hrs by broth microdilution method; type: functional
Escherichia coli [28] = experiment: Antibacterial activity against kanamycin resistant Escherichia coli incubated for 18 hrs by broth microdilution method; type: functional

SMILES: NCCCC[C@@H](NC(=O)[C@H](N)Cc1c[nH]c2ccccc12)C(=O)N[C@H](Cc1c[nH]c2ccccc12)C(=O)N[C@H](CCCCN)C(=O)N[C@H](Cc1c[nH]c2ccccc12)C(=O)N[C@@H](CC(N)=O)C(=O)NCC(=O)N[C@H](Cc1c[nH]c2ccccc12)C(=O)N[C@H](CCCCN)C(=O)N[C@H](Cc1c[nH]c2ccccc12)C(=O)N[C@H](CCCCN)C(=O)N[C@H](Cc1c[nH]c2ccccc12)C(N)=O
- MIC (Staphylococcus aureus [1]): 4 µM (≈ 7.27 µg/mL)
- MIC (Bacillus subtilis): 2 µM (≈ 3.64 µg/mL)
- MIC (Escherichia coli [2]): 8 µM (≈ 14.5 µg/mL)
- Activity [3]: Dose-Dependent Effect
- half-life [4]: > 48 h
- Activity (Pseudomonas aeruginosa [5]): Active
- Activity (Pseudomonas aeruginosa [6]): Active
- Activity (Staphylococcus aureus [7]): Active
- Activity (Staphylococcus aureus [8]): Active
- Activity (Cell membrane [9]): 40%
- Activity (Cell membrane [10]): inactive
- Activity (Pseudomonas aeruginosa [11]): Active
- fractional inhibitory concentration index (FICI) (Staphylococcus aureus [12]): 1
- fractional inhibitory concentration index (FICI) (Escherichia coli [13]): 0.375
- fractional inhibitory concentration index (FICI) (Staphylococcus aureus [14]): 0.188
- fractional inhibitory concentration index (FICI) (Staphylococcus aureus [15]): 0.375
- fractional inhibitory concentration index (FICI) (Staphylococcus aureus [16]): 0.5
- fractional inhibitory concentration index (FICI) (Staphylococcus aureus [17]): 0.313
- fractional inhibitory concentration index (FICI) (Klebsiella pneumoniae): 0.375
- fractional inhibitory concentration index (FICI) (Pseudomonas aeruginosa [18]): 0.188
- Activity (Staphylococcus aureus [19]): Active
- Activity (Staphylococcus aureus [20]): Active
- Activity (Staphylococcus aureus [21]): Active
- Activity (Staphylococcus aureus [22]): 100%
- Activity [23]: Toxic
- MIC (Staphylococcus aureus [24]): 8 µM (≈ 14.5 µg/mL)
- MIC (Staphylococcus aureus [25]): 8 µM (≈ 14.5 µg/mL)
- MIC (Staphylococcus aureus [26]): 8 µM (≈ 14.5 µg/mL)
- MIC (Escherichia coli [27]): 8 µM (≈ 14.5 µg/mL)
- MIC (Escherichia coli [28]): 16 µM (≈ 29.1 µg/mL)
